Results reported in ChEMBL document CHEMBL1201862, “PubChem BioAssay data set” (2004).
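Compound exposure: 48 hours, 5 concentrations, 96-well plates. GI50: concentration for 50% inhibition of growth.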 Calls of active or inactive are those of the source. No stated cut-off is given here; in the data, active = GI50 up to about 1.1 µM and inactive = higher.

Assays:
Assay in all cases: DTP human tumour cell line panel, 48 h
[1] = system: CAKI-1
[2] = system: CCRF-CEM
[3] = system: COLO 205
[4] = system: EKVX
[5] = system: HL-60
[6] = system: HOP-92
[7] = system: K562
[8] = system: LOX IMVI
[9] = system: NCI-H522
[10] = system: NCI/ADR-RES
[11] = system: OVCAR-3
[12] = system: SF-295
[13] = system: SF-539
[14] = system: SNB-75
[15] = system: SR
[16] = system: SW-620
[17] = system: DMS-273
[18] = system: HOP-18
[19] = system: KM-20L2
[20] = system: SNB-78

Row | Structure (SMILES) | GI50 [1] | GI50 [2] | GI50 [3] | GI50 [4] | GI50 [5] | GI50 [6] | GI50 [7] | GI50 [8] | GI50 [9] | GI50 [10] | GI50 [11] | GI50 [12] | GI50 [13] | GI50 [14] | GI50 [15] | GI50 [16] | GI50 [17] | GI50 [18] | GI50 [19] | GI50 [20]
1 | Cc1ccc([N+](=O)[O-])cc1S(=O)(=O)Nc1ccc(C2=NNC(c3ccccc3O)C2)cc1 (stereo not given) | 25.1 µM (inactive) | 16.6 µM (inactive) | 24.7 µM (inactive) | 20.9 µM (inactive) | 12.1 µM (inactive) | 79.3 µM (inactive) | 24.5 µM (inactive) | 34.8 µM (inactive) | 23.3 µM (inactive) | 24.8 µM (inactive) | 13.5 µM (inactive) | 31.7 µM (inactive) | 40.8 µM (inactive) | 33.2 µM (inactive) | 23.9 µM (inactive) | 31 µM (inactive) | – | – | – | –
2 | CCCCCn1cc2c3c(cccc31)C1C=C(C)CN(C)[C@@H]1C2.Cc1ccc(C(=O)OC(C(=O)O)C(OC(=O)c2ccc(C)cc2)C(=O)O)cc1 (stereo not given) | 5.69 µM (inactive) | 4.25 µM (inactive) | 3.38 µM (inactive) | 10.8 µM (inactive) | 1.35 µM (inactive) | 1.6 µM (inactive) | 2.51 µM (inactive) | 6.47 µM (inactive) | 3.44 µM (inactive) | 6.17 µM (inactive) | 6.75 µM (inactive) | 6.17 µM (inactive) | 9.95 µM (inactive) | 5.42 µM (inactive) | – | 4.16 µM (inactive) | 3.92 µM (inactive) | 2.33 µM (inactive) | 3.83 µM (inactive) | 13.7 µM (inactive)
3 | O=C1OC2(CC1C1(O)C3CC4CC(C3)CC1C4)C1CC3CC(C1)CC2C3 (stereo not given) | – | 85.1 µM (inactive) | – | – | > 100 µM (inactive) | – | > 100 µM (inactive) | 27.9 µM (inactive) | – | – | 44.6 µM (inactive) | 14.5 µM (inactive) | > 100 µM (inactive) | 40.8 µM (inactive) | – | 65.9 µM (inactive) | > 100 µM (inactive) | 6.61 µM (inactive) | – | > 100 µM (inactive)
4 | COC(Cc1cc(C(O)(c2ccc(C(C)(C)C)cc2)c2cc(CC(OC)(c3cc(C(OC)(c4ccc(C(C)(C)C)cc4)c4ccc(C(C)(C)C)cc4)c(C)cc3C)c3cc(C(OC)(c4ccc(C(C)(C)C)cc4)c4ccc(C(C)(C)C)cc4)c(C)cc3C)c(C)cc2C)c(C)cc1C)(c1cc(C(OC)(c2ccc(C(C)(C)C)cc2)c2ccc(C(C)(C)C)cc2)c(C)cc1C)c1cc(C(OC)(c2ccc(C(C)(C)C)cc2)c2ccc(C(C)(C)C)cc2)c(C)cc1C | > 75 µM (inactive) | > 75 µM (inactive) | > 75 µM (inactive) | > 75 µM (inactive) | > 75 µM (inactive) | > 75 µM (inactive) | > 75 µM (inactive) | > 75 µM (inactive) | – | > 75 µM (inactive) | > 75 µM (inactive) | > 75 µM (inactive) | > 75 µM (inactive) | > 75 µM (inactive) | > 75 µM (inactive) | > 75 µM (inactive) | – | – | – | –
5 | Cc1cc(C)c(S(=O)(=O)N(CCCCCN)OCCCN)c(C)c1 | 17.4 µM (inactive) | 20.7 µM (inactive) | 20.2 µM (inactive) | 15.9 µM (inactive) | – | 15.9 µM (inactive) | 17 µM (inactive) | 17.7 µM (inactive) | – | 18 µM (inactive) | 17.5 µM (inactive) | 15.1 µM (inactive) | 11.9 µM (inactive) | 15.3 µM (inactive) | 12.7 µM (inactive) | 19 µM (inactive) | – | – | – | –
6 | N#C/C(=C\c1ccncc1)c1csc2ccccc12 | 27.4 µM (inactive) | 20.4 µM (inactive) | 18.9 µM (inactive) | 23.8 µM (inactive) | 15.1 µM (inactive) | 20.9 µM (inactive) | 20.2 µM (inactive) | 20.4 µM (inactive) | 17.5 µM (inactive) | 22.1 µM (inactive) | 21.3 µM (inactive) | 32.4 µM (inactive) | 21.4 µM (inactive) | 24.4 µM (inactive) | – | 26.5 µM (inactive) | 26.3 µM (inactive) | 31.1 µM (inactive) | 20 µM (inactive) | 23.8 µM (inactive)
7 | COc1cc(C2C(Cl)C(=O)N2NC(=O)c2ccccc2O)ccc1O (stereo not given) | – | > 100 µM (inactive) | – | – | > 100 µM (inactive) | – | > 100 µM (inactive) | > 100 µM (inactive) | > 100 µM (inactive) | – | > 100 µM (inactive) | > 100 µM (inactive) | > 100 µM (inactive) | – | – | – | > 100 µM (inactive) | 34.8 µM (inactive) | – | > 100 µM (inactive)
8 | Cc1nc2c(c(=O)[nH]1)S/C(=C(/C#N)c1nc3ccccc3[nH]1)N2c1ccccc1 | > 100 µM (inactive) | > 100 µM (inactive) | > 100 µM (inactive) | > 100 µM (inactive) | > 100 µM (inactive) | > 100 µM (inactive) | > 100 µM (inactive) | – | > 100 µM (inactive) | – | > 100 µM (inactive) | > 100 µM (inactive) | > 100 µM (inactive) | > 100 µM (inactive) | > 100 µM (inactive) | > 100 µM (inactive) | > 100 µM (inactive) | – | > 100 µM (inactive) | 0.607 µM (active)
9 | Cc1ccc(NP(=O)(Oc2ccccc2)N(CCCl)CCCl)cc1 (stereo not given) | > 100 µM (inactive) | – | 31.6 µM (inactive) | > 100 µM (inactive) | 44 µM (inactive) | 96.4 µM (inactive) | > 100 µM (inactive) | – | > 100 µM (inactive) | – | 54.6 µM (inactive) | 67 µM (inactive) | > 100 µM (inactive) | > 100 µM (inactive) | 95.5 µM (inactive) | > 100 µM (inactive) | > 100 µM (inactive) | > 100 µM (inactive) | 76.7 µM (inactive) | > 100 µM (inactive)
10 | CN(C(=O)c1ccccc1)c1ccc2c(c1)C(=O)c1ccccc1C2=O | > 100 µM (inactive) | > 100 µM (inactive) | > 100 µM (inactive) | > 100 µM (inactive) | – | > 100 µM (inactive) | > 100 µM (inactive) | > 100 µM (inactive) | > 100 µM (inactive) | – | > 100 µM (inactive) | > 100 µM (inactive) | – | – | > 100 µM (inactive) | > 100 µM (inactive) | > 100 µM (inactive) | – | > 100 µM (inactive) | –
11 | O=C(CCl)NNC1=Nc2ccc(Cl)cc2SC1 | – | 0.612 µM (active) | 1.94 µM (inactive) | 2.07 µM (inactive) | 1.55 µM (inactive) | 1.63 µM (inactive) | 1.87 µM (inactive) | 1.14 µM (inactive) | 0.553 µM (active) | 1.8 µM (inactive) | 1.78 µM (inactive) | 15.1 µM (inactive) | 2.02 µM (inactive) | 2.16 µM (inactive) | – | 2.04 µM (inactive) | 2.88 µM (inactive) | 1.88 µM (inactive) | 4.3 µM (inactive) | 2.03 µM (inactive)
12 | COc1ccc(N2C(Cl)C(=O)C2c2c[nH]c3ccccc23)cc1 (stereo not given) | – | > 100 µM (inactive) | > 100 µM (inactive) | > 100 µM (inactive) | > 100 µM (inactive) | 28.3 µM (inactive) | 94.8 µM (inactive) | – | > 100 µM (inactive) | – | > 100 µM (inactive) | > 100 µM (inactive) | > 100 µM (inactive) | > 100 µM (inactive) | > 100 µM (inactive) | > 100 µM (inactive) | – | – | > 100 µM (inactive) | –
13 | CC(=O)c1c(-c2ccco2)c(C#N)c(=S)n(C2OC(CO)C(O)C(O)C2O)c1C (stereo not given) | > 100 µM (inactive) | 83.9 µM (inactive) | > 100 µM (inactive) | 82 µM (inactive) | 50.9 µM (inactive) | – | 95.5 µM (inactive) | 56.6 µM (inactive) | – | 75.9 µM (inactive) | > 100 µM (inactive) | > 100 µM (inactive) | 56 µM (inactive) | 47.5 µM (inactive) | 97.5 µM (inactive) | > 100 µM (inactive) | – | – | – | –
